Tests used:
cornea [1] = details: 0.05% concentration, after photorefractive keratectomy; cited from earlier work
corneal sensation = assay: Corneal sensitivity measured with a Cochet-Bonnet aesthesiometer; assay type: in vivo, human
From the text: The sub-hypoesthetic dose for a sodium channel blocker or a sodium channel modulator may vary between patients. […] The sub-hypoesthetic dose of a sodium channel blocker or a sodium channel modulator can be determined for an individual patient by selecting a higher starting concentration and gradually reducing the concentration via titration until reaching a sub-hypoesthetic dose as determined by a contact and non-contact esthesiometer. A non-limiting example of a method of determining corneal sensitivity is Cochet-Bonnet aesthesiometry.
As used herein, the phrases “sub-anesthetic dose” and “sub-anesthetic concentration” refer to a dose of a sodium channel blocker or a sodium channel modulator or a sodium channel modulator that is lower than the anesthetic dose. “Sub-anesthetic dose” and “sub-anesthetic concentration” may be used interchangeably. The sub-anesthetic dose of a sodium channel blocker or a sodium channel modulator may vary between patients. The sub-anesthetic dose of a sodium channel blocker or a sodium channel modulator can be determined for an individual patient by selecting a higher starting concentration and gradually reducing the concentration via titration until reaching a sub-anesthetic dose as determined by a contact and non-contact esthesiometer. A non-limiting example of a starting concentration of a sodium channel blocker or a sodium channel modulator is about 0.02%. In some embodiments, the concentration of the sodium channel blocker or a sodium channel modulator may be titrated down to a concentration that avoids any depression of corneal sensitivity. A non-limiting example of a method of determining corneal sensitivity is Cochet-Bonnet aesthesiometry.
(§1) A patient with well established primary Sjögren's syndrome and severe dry eyes was treated for intense, constant corneal pain using the anesthetic delivery system disclosed herein. Specifically, the patient was treated with bupivacaine and BOS-P devices. The concentration of non-preserved bupivacaine was rapidly titrated using frequent (every 2-5 minutes) drops in the more symptomatic left eye (open label) measuring corneal sensitivity with a Cochet-Bonnet aesthesiometer (with adequate recovery times) until reaching the concentration that avoided any depression of corneal sensitivity. The sub-anesthetic concentration in this patient was determined to be 0.001%. Both BOS-P devices were filled with 0.001% bupivacaine and inserted into the patient's eyes. The patient then left.
The patient was given a vial of 0.01% bupivacaine to dilute 1:10 (e.g., add one drop of 0.01% bupivacaine to nine drops of saline) to fill the reservoir of the left lens prior to inserting it the next morning. […]

corneal neuropathic pain [2] = assay: Treatment of corneal neuropathic pain in patients, drug solution in the fluid reservoir of a scleral lens (BOS-P); assay type: in vivo, human
Procedure: as §1
The patient was given a vial of 0.01% bupivacaine to dilute 1:10 (e.g., add one drop of 0.01% bupivacaine to nine drops of saline) to fill the reservoir of the left lens prior to inserting it the next morning.
They wore the BOS-P containing 0.001% bupivacaine in their left eye, and the BOS-P containing saline in their right eye unmasked to the patient and doctor, for about 8 hours. […] Corneal sensation in the treated eye was normal. […]

cornea [3] = assay: Examination of the cornea for adverse effects (fluorescein staining, slit lamp examination, confocal microscopy); assay type: in vivo, human
Procedure: They wore the BOS-P containing 0.001% bupivacaine in their left eye, and the BOS-P containing saline in their right eye unmasked to the patient and doctor, for about 8 hours. […] Corneal sensation in the treated eye was normal.
The patient returned the following day 2 hours after inserting the scleral lenses containing 0.015% ropivacaine.
A patient suffered from severe corneal neuropathic pain for many years, greatly limiting the patient's quality of life. This disease was refractory to previous treatments. Lacosamide was placed in the fluid reservoir of the device where it remained in contact with the cornea while it was worn (approximately 10 hours/day).

corneal neuropathic pain [4] = assay: Eye drops without scleral lens for corneal neuropathic pain; assay type: in vivo, human; details: Example 5, eye drops 0.5% lacosamide
Procedure: Eye drops containing 0.5% lacosamide were administered to the eyes of two patients and to the an eye of the inventor. […] Therefore, it is believed that lacosamide may be used in eye drops at a concentration of up to 5% to treat corneal neuropathic pain without depressing corneal sensation.

CCCOc1ccc(C(=O)OCCN(CC)CC)cc1N [Proparacaine, proparacaine]
anesthetic effect, toxicity and safety (cornea [1]): non-anesthetic, non-toxic, and safe for at least one week of use

CCCCN1CCCCC1C(=O)Nc1c(C)cccc1C (stereo not shown) [bupivacaine]
sub-anesthetic concentration (concentration that avoided any depression of corneal sensitivity) (corneal sensation; Example 1, Sjögren's syndrome patient, titration with drops every 2-5 minutes in left eye): 0.001%
corneal sensation by Cochet-Bonnet aesthesiometry (corneal sensation; in vivo): remained intact
eye comfort reported by patient (corneal neuropathic pain [2]; Example 1, next day after both BOS-P devices were filled with 0.001% bupivacaine): more comfortable than they had been in 3 months
pain reported by patient at day's end (corneal neuropathic pain [2]; Example 1, second day, left lens reservoir filled with non-preserved bupivacaine): virtual absence of pain in either eye
pain after exposure to glass cleaner or white board marker (corneal neuropathic pain [2]; Example 1, second day, exposure would ordinarily trigger severe pain): little or no pain
pain reported after about 8 hours of wear (corneal neuropathic pain [2]; Example 1, third day, 0.001% bupivacaine in left BOS-P, saline in right BOS-P): virtually no pain in either eye
pain, Visual Analog Scale (corneal neuropathic pain [2]; Example 1, third day, on arrival): virtually no pain in either eye
eye symptoms (photosensitivity, burning pain, inability to read) (corneal neuropathic pain [2]; Example 2, 0.002% bupivacaine in both BOS-P lenses, at least 12 hours/day, over several weeks): resolved
eye symptoms (corneal neuropathic pain [2]; Example 2, bupivacaine diluted to 0.0014% in BOS-P): resolved
fluorescein staining after lens removal (cornea [3]; in vivo): no significant fluorescein staining in either eye

COC[C@@H](NC(C)=O)C(=O)NCc1ccccc1 [lacosamide]
maximum concentration that avoided significant depression of corneal sensation (corneal sensation; Example 4, titration, fluid reservoir of BOS-P): 0.003%
corneal sensation (corneal sensation; Example 5, eye drops 0.5% lacosamide, two patients and an eye of the inventor): did not depress corneal sensation
duration of effect, one patient (corneal neuropathic pain [4]): over four hours
duration of effect, the other patient (corneal neuropathic pain [4]): over two hours
onset of pain resolution (corneal neuropathic pain [4]): almost immediately after administration
corneal neuropathic pain (corneal neuropathic pain [4]; both patients): complete resolution of corneal neuropathic pain
corneal neuropathic pain (corneal neuropathic pain [2]; Example 4, 0.003% lacosamide in BOS-P, approximately 10 hours/day): significantly mitigated
eye and co-morbid pain symptoms (corneal neuropathic pain [2]; Example 6, chronic graft versus host disease patient, lacosamide 0.05% in scleral lens reservoir): disappeared
effects on the corneas by slit lamp examination and confocal microscopy (cornea [3]; Example 4, 0.003% lacosamide in BOS-P): without any detrimental effects to the corneas

CCCN1CCCC[C@H]1C(=O)Nc1c(C)cccc1C [ropivacaine]
corneal sensitivities at subsequent examinations (corneal sensation; in vivo): normal corneal sensitivities
corneal sensitivity by Cochet-Bonnet aesthesiometer (corneal sensation; in vivo): normal
eye pain and photophobia, lenses worn until midnight the previous day (corneal neuropathic pain [2]; Example 3, 0.015% ropivacaine in scleral lenses): total resolution of eye pain and photophobia
symptoms at examination, 2 hours after inserting lenses (corneal neuropathic pain [2]; Example 3, 0.015% ropivacaine, following day): free of symptoms
eye pain and photosensitivity following application (corneal neuropathic pain [2]; Example 3, Stevens-Johnson syndrome patient, 0.015% ropivacaine in scleral lenses, first day): rapid mitigation of eye pain and photosensitivity
eye pain and photophobia at subsequent examinations (corneal neuropathic pain [2]; Example 3, ropivacaine in scleral lenses): significant mitigation of eye pain and photophobia
adverse effects on the eyes from the treatment (cornea [3]; in vivo): no adverse effects
treatment-related complications at subsequent examinations (cornea [3]; in vivo): without adverse treatment-related complications

— patent US20110071630A1, “SODIUM CHANNEL BLOCKER DELIVERY SYSTEM WITH SCLERAL LENS” (Boston Foundation for Sight, priority 2009, published 2011)
